In article PMC12378234, “Enzyme-mediated aminoglycoside resistance without target mimicry” (Communications Chemistry, 2025):
Values after ≈ are worked out from the molar mass of the structure shown.

Experiments:
Assay in all cases: Antibiotic susceptibility testing, endpoint MIC assay
Format in all cases: cell-based
[1] = system: BL21(DE3) E. coli transformed with pUCP18 vector expressing AAC(3)-IIIa; settings: Escherichia coli, 20 h, read-out: Endpoint minimum inhibitory concentration (MIC)
Description: (§1) Ten milliliters of cultures of LB containing […] ampicillin were inoculated from glycerol stocks of transformed BL21(DE3) E. coli containing genes expressing the proteins of interest in pUCP18 vectors. Experiments were performed using 6xHis-tagged fusion-proteins, as well as untagged wild-type proteins. These cultures were incubated at 37 °C with 200 rpm agitation for 16 h. Turbidity was measured through OD600 with a NanoDrop OneC Spectrometer (Thermo Scientific). From the initial cultures, secondary 10 mL cultures were prepared with OD600 values of 0.1. These cultures were grown until OD600 values of 0.4–0.6 were reached and diluted to bring all cultures to the same OD600. Cultures were induced with 1 mM Isopropyl β-D-1-thiogalactopyranoside and incubated for 4 h. Cultures were diluted to 1 × 10^6 cells mL^−1. Two microliters of culture was added to 198 μL of LB with an appropriate aminoglycoside titration concentration. The formulated 96-well culture plate (Sarstedt) was incubated at 37 °C with 120 rpm orbital agitation. The remainder of the bacterial culture was immediately lysed and processed for Western blotting. OD600 was measured after 20 h using the Molecular Devices Spectra MAX 190 plate reader.

[2] = system: BL21(DE3) E. coli transformed with pUCP18 vector expressing AAC(3)-Ia; settings: Escherichia coli, 20 h, read-out: Endpoint minimum inhibitory concentration (MIC)
Description: as §1

[3] = system: BL21(DE3) E. coli transformed with pUCP18 vector expressing AAC(3)-XIa; settings: Escherichia coli, 20 h, read-out: Endpoint minimum inhibitory concentration (MIC)
Description: as §1

[4] = system: empty pUCP18 vector transformed E. coli; settings: Escherichia coli; empty pUCP18 vector control E. coli; after 20 h of growth; read-out: Endpoint minimum inhibitory concentration (MIC)
Description: as §1

CN[C@@H]1[C@@H](O)[C@@H](O[C@@H]2[C@@H](O)[C@H](O[C@H]3OC(CN)=CC[C@H]3N)[C@@H](N)C[C@H]2N)OC[C@]1(C)O [Sisomicin, sisomicin] gave an MIC [1] of 12 µg/mL (≈ 26.8 µM), an MIC [2] of 6 µg/mL (≈ 13.4 µM) and an MIC [3] of 12 µg/mL (≈ 26.8 µM). For the same molecule, the MIC [4] was 6 µg/mL (≈ 13.4 µM).
